Assay results reported in patent publication EP4215193A1, “METHOD FOR THE CONSERVATIVE TREATMENT OF ENDOMETRIAL POLYPS” (Kiselev, Vsevolod Ivanovich, priority 2020, dated 2022).

Tests used:
[1] = Clinical comparison of efficacy of DIM + βCD complex and crystalline DIM taken orally; type: in vivo; conditions: equal dosages, all studied groups of patients
Excerpt: Clinical studies have compared the efficacy of the water-soluble DIM + βCD complex and crystalline 3,3'-diindolylmethane in equal dosages when taken orally. […]

[2] = system: pathological neoangiogenesis; conditions: subcutaneously, 5 mg / kg, daily; cited from earlier work

Compound	clinical response [1]	inhibition of pathological neoangiogenesis [2] [%]
3,3'-diindolylmethane [Crystal DIM]	absence of such	–
c1ccc2c(Cc3c[nH]c4ccccc34)c[nH]c2c1 [DIM, 3,3'-diindolylmethane]	–	74
